# Patent US20070197432A1, “Peptides for preventing, diagnosing and treating animal and/or human leptospirosis” (priority 2002, published 2007)
# No end group written: not given here.
# Key:
# [1] = tested on: Leptospira interrogans sl serovar canicola; assay: Trial 2: gerbils immunized with PP-KLH or PP, 10^−2 canicola challenge; assay type: in vivo, gerbil; set-up: Mortality rate / Survival rate: unit not given here
# Method: An immunization/challenge trial was carried out in order to evaluate the protection that can be provided by the PP peptide (SEQ ID No. 1) coupled or not coupled to the KLH protein.
# This construct is administered subcutaneously without adjuvant, and PBS is administered by the same route as the negative control (batch 3). • Batch 1: 12 gerbils, 2 injections of 30 μg of PP-KLH in 300 μl. • Batch 2: 12 gerbils, 2 injections of 30 μg of PP in 300 μl. • Batch 3: 15 gerbils, 2 injections of PBS in 300 A1.
# The two injections in a volume of 300 μl were administered subcutaneously, two weeks apart. A challenge by intraperitoneal injection of 0.5 ml of a serovar canicola leptospiral culture with a titer of 90 to 100 TU (turbidimetry) diluted to 10^−2 was administered three weeks after the second injection.
# [2] = Dogs immunized with PP-KLH, immunization phase (tolerance, weight); assay type: in vivo, dog
# Method: An immunization/challenge protocol was carried out in order to evaluate the protection that can be provided by the PP peptide (SEQ ID No. 1) NH2-coupled to the KLH carrier protein (FIG. 14).
# (§1) This construct is administered subcutaneously without adjuvant, with PBS as a negative control (batch 2).
# Batch 1: 6 SPF dogs, 2 injections of 250 μg of PP-KLH in 1 ml subcutaneously.
# Batch 2: 6 SPF dogs, control.
# The two injections were administered subcutaneously, […].
# The immunization phase was carried out from D-39 to D-1, (D0 being the day of challenge), with the first injection on D-35 and second on D-18.
# During this phase, the weight was measured on D-39, D-35, D-28, and D-7 (FIG. 15).
# [3] = tested on: Leptospira interrogans sl serovar canicola; assay: Dogs immunized with PP-KLH, canicola challenge: cultures of plasma, urine and kidney samples; assay type: in vivo, dog
# Method: The animals are given a challenge at a rate of one virulent culture of 4 to 6 days. For an immunized batch and a control batch, each animal received, in each eye, 0.3 ml of the culture having a titer of 120 TU (i.e. 2×10^8 leptospires per ml) and, intraperitoneally, 4 ml of the same culture diluted ten-fold.
# The presence of leptospires was studied jointly by PCR (PCR specific for pathogenic leptospires) and by culturing, in the urine at D0, D10, D14, D18, D25 and D41 and in the kidney samples from each animal at the end of the trial at […].
# Moreover, the bacteriological results were quantified through the setting up of a coefficient: • by immediate culturing. A single live leptospire can give a positive culture. A relative estimation of the bacterial concentration is expressed by means of a coefficient of 3 when a culture has developed in the third serial dilution prepared from the sample. • by PCR on frozen samples. […] A coefficient of 1 was assigned to a PCR with a weak signal and a coefficient of 2 to a strongly positive PCR.
# PP peptide = assay: Trial 1: anti-PP IgG ELISA of gerbils immunized with PP-KLH; assay type: in vivo, gerbil; details: three dilutions observed
# Method: (§2) An immunization/challenge protocol was carried out in order to evaluate the protection that can be provided by the PP peptide (SEQ ID No. 1) coupled to the KLH protein.
# as §1
# (§3) Batch 1: 10 gerbils, 2 injections of 30 μg of PP-KLH in 300 μl, subcutaneously.
# (§4) The two injections in a volume of 300 μl were administered subcutaneously, two weeks apart. A challenge by intraperitoneal injection of 0.5 ml of a canicola culture with a titer of 90 to 100 TU (turbidimetry) diluted to 10^−2.5 was administered two weeks after the second injection. • Antigenic response: Monitoring by ELISA of the immune response of the gerbils against the PP peptide
# The anti-PP antibodies were titered in the gerbil by means of an ELISA technique (described above) with a biotinylated anti-gerbil antiglobulin (BioAtlantic) at 1/3000 and, as visualizing agent, peroxidase-coupled streptavidin (RPN1231, Amersham pharmacia biotech).
# For each batch of gerbils, the sera were combined with respect to the various sample dates D0 (before the first immunization), D14 (before the second immunization) and D28 (before the challenge).
# The results of the IgG antibody response against the PP peptide, expressed as corrected OD (OD of the treated sera corrected with respect to the OD of the control sera), are given in FIG. 11.
# [4] = tested on: Leptospira interrogans sl serovar canicola; assay: Trial 1: gerbils immunized with PP-KLH, 10^−2.5 canicola challenge; assay type: in vivo, gerbil
# Method: as §2, §1, §3
# Batch 2: 10 gerbils, 2 injections of PBS in 300 μl.
# as §4
# [5] = tested on: Leptospira interrogans sl serovar canicola; assay: Dogs immunized with PP-KLH, canicola challenge: clinical, hematological and biochemical parameters; assay type: in vivo, dog; details: at D4
# [6] = Accumulation of the two trials, survival
substance,measurement,setting,value
"PP-KLH: PP peptide with cysteine added at the N-terminal position, coupled via sulfo-MBS to KLH carrier protein (keyhole limpet hemocyanin) (KAKPVQKLDDDDDGDDTYKEERHNK; not fully specified (N-terminus))",Mortality rate,[1]; 10^−2 canicola challenge,8.3
same,Survival rate,[1]; 10^−2 canicola challenge,91.6
same,mortality in the group (dead/number),[1]; 10^−2 canicola challenge,1/12
same,gerbils at challenge,"[1]; 10^−2 canicola challenge, D0",12
same,mortality of gerbils (dead/number),"[1]; 10^−2 canicola challenge, D4",0/12
same,mortality of gerbils (dead/number),"[1]; 10^−2 canicola challenge, D5",0/12
same,mortality of gerbils (dead/number),"[1]; 10^−2 canicola challenge, D6",0/12
same,mortality of gerbils (dead/number),"[1]; 10^−2 canicola challenge, D7",0/12
same,mortality of gerbils (dead/number),"[1]; 10^−2 canicola challenge, D8",0/12
same,mortality of gerbils (dead/number),"[1]; 10^−2 canicola challenge, D9",1/12
same,mortality of gerbils (dead/number),"[1]; 10^−2 canicola challenge, D10",0/11
same,mortality of gerbils (dead/number),"[1]; 10^−2 canicola challenge, D11",0/11
same,mortality of gerbils (dead/number),"[1]; 10^−2 canicola challenge, D12",0/11
same,mortality of gerbils (dead/number),"[1]; 10^−2 canicola challenge, D13",0/11
same,mortality of gerbils (dead/number),"[1]; 10^−2 canicola challenge, D14",0/11
same,mortality of gerbils (dead/number),"[1]; 10^−2 canicola challenge, D15",0/11
same,mortality of gerbils (dead/number),"[1]; 10^−2 canicola challenge, D16",0/11
same,mortality of gerbils (dead/number),"[1]; 10^−2 canicola challenge, D17",0/11
same,mortality of gerbils (dead/number),"[1]; 10^−2 canicola challenge, D28",0/11
same,"p, log-rank test versus control",[1]; [6],<2.10^−3
same,"χ^2, log-rank test versus control",[1]; [6],10.1
same,"p, log-rank test versus control","[1]; Experiment 2, survival",<1.10^−2
same,"χ^2, log-rank test versus control","[1]; Experiment 2, survival",6.84
same,tolerance in immunization phase,"[2]; SPF dogs, 2 s.c. injections of 250 μg without adjuvant",complete tolerance
same,"p, evolution of mean increase in weights, control versus immunized dogs (not significantly different)",[2]; between D-35 and D-7,0.8509
same,positive cultures/dogs,"[3]; Plasma, D0",0/6
same,positive cultures/dogs,"[3]; Plasma, D3",6/6
same,positive cultures/dogs,"[3]; Plasma, D7",0/6
same,positive cultures/dogs,"[3]; Urine, D14",2/6
same,positive cultures/dogs,"[3]; Urine, D18",3/6
same,positive cultures/dogs,"[3]; Urine, D25",4/6
same,renal carrier status at the time of euthanasia,"[3]; detected both by culturing and by PCR, both groups",renal carriers
same,excretion of leptospires in the urine,"[3]; immunized versus control dogs, cultures and PCRs","becomes apparent later, or at a lower level"
same,boost effect of second injection: corrected OD at D28 relative to D14,PP peptide,more than double
same,Mortality rate,[4]; 10^−2.5 canicola challenge,6/10
same,Survival rate,[4]; 10^−2.5 canicola challenge,4/10
same,gerbils alive,"[4]; 10^−2.5 canicola challenge, D4",10
same,gerbils alive,"[4]; 10^−2.5 canicola challenge, D5",10
same,gerbils alive,"[4]; 10^−2.5 canicola challenge, D6",7
same,gerbils alive,"[4]; 10^−2.5 canicola challenge, D7",5
same,gerbils alive,"[4]; 10^−2.5 canicola challenge, D8",4
same,gerbils alive,"[4]; 10^−2.5 canicola challenge, D9",4
same,gerbils alive,"[4]; 10^−2.5 canicola challenge, D10",4
same,gerbils alive,"[4]; 10^−2.5 canicola challenge, D11",4
same,gerbils alive,"[4]; 10^−2.5 canicola challenge, D30",4
same,gerbils alive,"[4]; 10^−2.5 canicola challenge, before challenge",10
same,gerbils alive,"[4]; 10^−2.5 canicola challenge, day of challenge",10
same,Survival rate,"[4]; 10^−2.5 canicola challenge, listed as PP peptide coupled to the KLH protein",4 of the 10
same,"p, log-rank test versus control","[4]; Experiment 1, survival",<7.10^−2
same,"p, monocyte depletion observed only in the controls",[5],0.05
same,"p, transient leukopenia greater in control than in immunized dogs",[5],< 0.05
same,lymphopenia,[5]; significant in the controls,not noted at all
